Measured values from ChEMBL document CHEMBL4680377, “Discovery of a Novel Series of Pyridone-Based EP3 Antagonists for the Treatment of Type 2 Diabetes” (ACS Med Chem Lett, 2021).
Converted amounts (≈) assume the structure as drawn.

What was measured:
[1] = Apparent permeability across apical to basolateral side in dog MDCK cells; assay type: ADME, cell-based, Canis lupus familiaris
[2] = Metabolic stability in human liver microsomes assessed as intrinsic clearance half life; assay type: ADME, Microsome
[3] = Kinetic solubility of compound in PBS buffer; assay type: physicochemical; details: read-out: Kinetic_solubility
[4] = Metabolic stability in rat liver microsomes assessed as intrinsic clearance half life; assay type: ADME, Microsome
[5] = Kinetic solubility of compound at pH 2; assay type: physicochemical; details: buffer, read-out: Kinetic_solubility
[6] = molecular target: T1, Prostaglandin E2 receptor EP3 subtype (Homo sapiens, UniProt P43115); test: Displacement of [3H]-PGE2 from human EP3 expressed in Chem-1 cell membranes incubated for 2 hrs by TopCount scintillation plate reader analysis; set-up: species or system Membrane
T1 sequence (P43115 whole entry): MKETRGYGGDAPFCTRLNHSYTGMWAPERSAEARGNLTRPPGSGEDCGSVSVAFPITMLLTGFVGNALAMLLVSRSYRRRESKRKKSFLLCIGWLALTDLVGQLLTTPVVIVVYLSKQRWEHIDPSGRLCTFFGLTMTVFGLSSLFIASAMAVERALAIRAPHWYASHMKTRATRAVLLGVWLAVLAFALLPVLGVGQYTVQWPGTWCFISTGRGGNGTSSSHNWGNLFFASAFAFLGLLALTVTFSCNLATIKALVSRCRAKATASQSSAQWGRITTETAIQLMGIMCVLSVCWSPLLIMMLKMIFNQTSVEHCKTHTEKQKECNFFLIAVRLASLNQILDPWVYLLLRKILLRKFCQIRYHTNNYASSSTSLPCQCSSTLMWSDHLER

[7] = molecular target: T1, Prostaglandin E2 receptor EP3 subtype; test: Antagonist activity at human EP3 expressed in CHO cells assessed as suppression of sulprostone-induced inhibition of forskolin induced cAMP production measured after 30 mins by HTR-FRET assay; assay type: functional, cell-based

| Compound | Papp A→B [1] [×10⁻⁶ cm/s] | half-life [2] [h] | solubility kinetic [3] [µM] | half-life [4] [h] | solubility kinetic [5] [µM] | Ki [6] [nM] | IC50 [7] [nM] |
| --- | --- | --- | --- | --- | --- | --- | --- |
| CC(C)/C(=C1/SC(=O)NC1=O)c1ccc(-c2ccc3cccc(F)c3c2)[nH]c1=O | 22.9 | > 3 | 23.3 (≈ 9.52 µg/mL) | > 3 | 9.2 (≈ 3.76 µg/mL) |  |  |
| CC(C)C(c1ccc(-c2ccc3cccc(F)c3c2)[nH]c1=O)C1C(=O)NC(=O)N1C (configuration not stated) |  | 0.375 | 17.9 (≈ 7.29 µg/mL) | 0.263 | 13.6 (≈ 5.54 µg/mL) |  |  |
| CCn1ncc2cc(C)c(-c3ccc(C(/C=C4\OC(=O)NC4=O)(CC)CC)c(=O)[nH]3)cc21 |  |  |  |  |  | 5700 | > 20000 |
| O=C1NC(=O)/C(=C/C2(c3ccc(-c4ccc5cccc(F)c5c4)[nH]c3=O)CCCC2)O1 |  | > 3 | 24.5 (≈ 10.3 µg/mL) | > 3 | 2.55 (≈ 1.07 µg/mL) |  |  |
| CCN1CCOc2ccc(-c3ccc(C(/C=C4\OC(=O)NC4=O)(CC)CC)c(=O)[nH]3)cc21 |  | 0.972 | 24.1 (≈ 10.5 µg/mL) | 1.51 | 21 (≈ 9.19 µg/mL) |  |  |
| CC(C)[C@@H](/C=C1\OC(=O)NC1=O)c1ccc(-c2ccc3cccc(F)c3c2)[nH]c1=O |  | > 3 | 26.4 (≈ 10.7 µg/mL) | > 3 | 4.62 (≈ 1.88 µg/mL) |  |  |
| CC(C)C(c1ccc(-c2ccc3cccc(F)c3c2)[nH]c1=O)C1NC(=O)NC1=O (configuration not stated) |  | 0.578 | 10.6 (≈ 4.17 µg/mL) | 0.145 | 5.8 (≈ 2.28 µg/mL) |  |  |
| CC(C)C(c1ccc(-c2ccc3cccc(F)c3c2)[nH]c1=O)C1SC(=O)NC1=O (configuration not stated) | 26.3 | 1.87 | 20.1 (≈ 8.25 µg/mL) | 0.76 | 11.3 (≈ 4.64 µg/mL) |  |  |
| O=C1NC(=O)/C(=C/C(c2ccc(-c3ccc4cccc(F)c4c3)[nH]c2=O)C2CCCCC2)O1 (configuration not stated) |  | 1.09 |  | 2.39 |  |  |  |
| CCC(/C=C1\OC(=O)NC1=O)(CC)c1ccc(-c2ccc3cccc(C(C)C)c3c2)[nH]c1=O |  | 0.758 |  | 1.88 |  | 120 |  |
| CC(C)C1(c2ccc(-c3ccc4ccccc4c3)[nH]c2=O)OC(O)=NC1=O (configuration not stated) |  |  |  |  |  |  | 68 |
| CC(C)[C@@H](C[C@H]1SC(=O)NC1=O)c1ccc(-c2ccc3cccc(F)c3c2)[nH]c1=O (relative stereo) | 25.5 | 1.24 | 23.9 (≈ 10.1 µg/mL) | 0.77 | 12.2 (≈ 5.18 µg/mL) |  |  |
| CCC(/C=C1\OC(=O)NC1=O)(CC)c1ccc(-c2ccc3cc(F)cc(F)c3c2)[nH]c1=O |  | > 3 |  | > 3 |  | 28 | 45 |
| CCC(/C=C1\OC(=O)NC1=O)(CC)c1ccc(-c2ccc3cccc(C(F)(F)F)c3c2)[nH]c1=O |  | 0.353 |  | 1.09 |  |  |  |
| CCc1cccc2ccc(-c3ccc(C(/C=C4\OC(=O)NC4=O)(CC)CC)c(=O)[nH]3)cc12 |  | 0.178 |  | 1.77 |  |  |  |
| CC(C)/C(=C1/OC(=O)NC1=O)c1ccc(-c2ccc3cccc(F)c3c2)[nH]c1=O |  | > 3 |  | > 3 |  | 140 | 1300 |
| CCn1ncc2cc(F)c(-c3ccc(C(/C=C4\OC(=O)NC4=O)(CC)CC)c(=O)[nH]3)cc21 |  |  |  |  |  | 120 |  |
| CC(C)C(CC1C(=O)NC(=O)N1C)c1ccc(-c2ccc3cccc(F)c3c2)[nH]c1=O (configuration not stated) | 17.6 | 0.153 | 33.6 (≈ 14.2 µg/mL) | < 0.0667 | 26.6 (≈ 11.2 µg/mL) |  |  |
| CC(C)C(/C=C1\OC(=O)NC1=O)c1cc(Cl)c(-c2ccc3cccc(F)c3c2)[nH]c1=O (configuration not stated) |  | > 3 | 21.5 (≈ 9.48 µg/mL) | > 3 | 3.2 (≈ 1.41 µg/mL) |  |  |
| CC(C)[C@H](C[C@H]1SC(=O)NC1=O)c1ccc(-c2ccc3cccc(F)c3c2)[nH]c1=O (relative stereo) | 17.6 | 0.67 | 31.2 (≈ 13.2 µg/mL) | 0.143 | 4.9 (≈ 2.08 µg/mL) |  |  |

| Compound | Papp A→B [1] [×10⁻⁶ cm/s] | half-life [2] [h] | solubility kinetic [3] [µM] | half-life [4] [h] | solubility kinetic [5] [µM] | Ki [6] [nM] | IC50 [7] [nM] |
| --- | --- | --- | --- | --- | --- | --- | --- |
| CCC(CC)C(/C=C1\OC(=O)NC1=O)c1ccc(-c2ccc3cccc(F)c3c2)[nH]c1=O (configuration not stated) |  | > 3 | 33.7 (≈ 14.6 µg/mL) | > 3 | 3.68 (≈ 1.6 µg/mL) |  |  |
| CCC(/C=C1\OC(=O)NC1=O)(CC)c1ccc(-c2ccc3c(c2)OC(C)(C)CC3)[nH]c1=O |  |  |  |  |  | 2600 | > 20000 |
| CC(C)(/C=C1\OC(=O)NC1=O)c1ccc(-c2ccc3cccc(F)c3c2)[nH]c1=O |  | 1.89 | 36.1 (≈ 14.2 µg/mL) | > 3 | 1.66 (≈ 0.651 µg/mL) |  |  |
| CC(C)C(CC1NC(=O)NC1=O)c1ccc(-c2ccc3cccc(F)c3c2)[nH]c1=O (configuration not stated) | 17.1 | 1.59 | 12.3 (≈ 5.01 µg/mL) | 0.35 | 13 (≈ 5.3 µg/mL) |  |  |
| CC(C)/C(=C1\NC(=O)OC1=O)c1ccc(-c2ccc3cccc(F)c3c2)[nH]c1=O |  | > 3 |  | > 3 |  |  |  |
| CC(C)C(/C=C1\NC(=O)NC1=O)c1ccc(-c2ccc3cccc(F)c3c2)[nH]c1=O (configuration not stated) | 12.3 | > 3 | 10.7 (≈ 4.34 µg/mL) | 1.46 | 7.5 (≈ 3.04 µg/mL) |  |  |
| O=C1NC(=O)/C(=C/C(c2ccc(-c3ccc4cccc(F)c4c3)[nH]c2=O)C2CCCC2)O1 (configuration not stated) |  | 1.21 |  | > 3 |  |  |  |
| CCn1nc(C)c2ccc(-c3ccc(C(/C=C4\OC(=O)NC4=O)(CC)CC)c(=O)[nH]3)cc21 |  |  |  |  |  | 270 | 18000 |
| CCn1ncc2c(F)c(-c3ccc(C(/C=C4\OC(=O)NC4=O)(CC)CC)c(=O)[nH]3)ccc21 |  |  |  |  |  | 1300 | > 20000 |
| CCC(/C=C1\OC(=O)NC1=O)(CC)c1ccc(-c2ccc3c(F)cc(F)cc3c2)[nH]c1=O |  |  |  |  |  | 290 |  |
| O=C1NC(=O)/C(=C/C(c2ccccc2)c2ccc(-c3ccc4cccc(F)c4c3)[nH]c2=O)O1 (configuration not stated) |  | 2.1 | 32.8 (≈ 14.4 µg/mL) | > 3 | 15.4 (≈ 6.78 µg/mL) |  |  |
| O=C1NC(=O)/C(=C/C(c2ccc(-c3ccc4cccc(F)c4c3)[nH]c2=O)C2CC2)O1 (configuration not stated) |  | 1.98 | 30.8 (≈ 12.5 µg/mL) | > 3 | 3.85 (≈ 1.56 µg/mL) |  |  |
| CCn1cc2c(F)c(-c3ccc(C(/C=C4\OC(=O)NC4=O)(CC)CC)c(=O)[nH]3)ccc2n1 |  |  |  |  |  | > 10000 | > 20000 |
| Cc1cc(C(/C=C2\OC(=O)NC2=O)C(C)C)c(=O)[nH]c1-c1ccc2cccc(F)c2c1 (configuration not stated) |  | > 3 | 35.7 (≈ 15 µg/mL) | > 3 | 39.4 (≈ 16.6 µg/mL) |  |  |
| CC(C)C(/C=C1\SC(=O)NC1=O)c1ccc(-c2ccc3cccc(F)c3c2)[nH]c1=O (configuration not stated) | 15.4 | > 3 | 25.6 (≈ 10.8 µg/mL) | 2.62 | 4.8 (≈ 2.03 µg/mL) |  |  |
| CC(C)[C@H](/C=C1\OC(=O)NC1=O)c1ccc(-c2ccc3cccc(F)c3c2)[nH]c1=O |  | > 3 | 25.4 (≈ 10.3 µg/mL) | > 3 | 10.8 (≈ 4.39 µg/mL) |  |  |
| O=C1NC(=O)/C(=C/C(Cc2ccccc2)c2ccc(-c3ccc4cccc(F)c4c3)[nH]c2=O)O1 (configuration not stated) |  | 1.3 | 9.1 (≈ 4.14 µg/mL) | 2.96 | 0.9 (≈ 0.409 µg/mL) |  |  |
| O=C1NC(=O)/C(=C/C2(c3ccc(-c4ccc5cccc(F)c5c4)[nH]c3=O)CC2)O1 |  | 2.48 | 33.4 (≈ 13 µg/mL) | > 3 | 27.4 (≈ 10.7 µg/mL) | 28 | 55 |
| CC(C)C(/C=C1/C(=O)NC(=O)N1C)c1ccc(-c2ccc3cccc(F)c3c2)[nH]c1=O (configuration not stated) | 14.1 | > 3 | 34.8 (≈ 14.6 µg/mL) | 1.08 | 8.3 (≈ 3.48 µg/mL) |  |  |
